Assay results from PubChem BioAssay (NCI).
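96-well plates; 48 h exposure; 5 concentrations. Endpoints by linear interpolation between flanking doses. Not reached: highest tested concentration assigned. Definition used: TGI = concentration required for complete inhibition of growth.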

How the values were obtained:
Assay in all cases: inhibition of tumour cell growth, NCI panel, 48 h
786-0 renal = system: 786-0 renal
A498 renal = system: A498 renal
A549 NSCLC = system: A549 NSCLC
ACHN renal = system: ACHN renal
BT-549 breast = system: BT-549 breast
CAKI-1 renal = system: CAKI-1 renal
CCRF-CEM leukemia = system: CCRF-CEM leukemia
COLO 205 colon = system: COLO 205 colon
DU-145 prostate = system: DU-145 prostate
EKVX NSCLC = system: EKVX NSCLC
HCC-2998 colon = system: HCC-2998 colon
HCT-116 colon = system: HCT-116 colon
HCT-15 colon = system: HCT-15 colon
HOP-62 NSCLC = system: HOP-62 NSCLC
IGROV1 ovarian = system: IGROV1 ovarian
K-562 leukemia = system: K-562 leukemia
KM12 colon = system: KM12 colon
LOX IMVI melanoma = system: LOX IMVI melanoma
M14 melanoma = system: M14 melanoma
MALME-3M melanoma = system: MALME-3M melanoma
MCF7 breast = system: MCF7 breast
MDA-MB-231 breast = system: MDA-MB-231 breast
MDA-MB-435 = system: MDA-MB-435
MDA-N = system: MDA-N
MOLT-4 leukemia = system: MOLT-4 leukemia
NCI-H226 lung = system: NCI-H226 lung
NCI-H23 lung = system: NCI-H23 lung
NCI-H460 lung = system: NCI-H460 lung
NCI-H522 lung = system: NCI-H522 lung
NCI/ADR-RES ovarian = system: NCI/ADR-RES ovarian
OVCAR-4 ovarian = system: OVCAR-4 ovarian
OVCAR-5 ovarian = system: OVCAR-5 ovarian
OVCAR-8 ovarian = system: OVCAR-8 ovarian
PC-3 prostate = system: PC-3 prostate
RPMI-8226 leukemia = system: RPMI-8226 leukemia
RXF 393 renal = system: RXF 393 renal
SF-268 CNS = system: SF-268 CNS
SF-295 CNS = system: SF-295 CNS
SF-539 CNS = system: SF-539 CNS
SK-MEL-2 melanoma = system: SK-MEL-2 melanoma
SK-MEL-28 melanoma = system: SK-MEL-28 melanoma
SK-MEL-5 melanoma = system: SK-MEL-5 melanoma
SK-OV-3 ovarian = system: SK-OV-3 ovarian
SN12C renal = system: SN12C renal
SNB-19 CNS = system: SNB-19 CNS
SNB-75 CNS = system: SNB-75 CNS
SR leukemia = system: SR leukemia
SW-620 colon = system: SW-620 colon
T-47D breast = system: T-47D breast
TK-10 renal = system: TK-10 renal
U251 CNS = system: U251 CNS
UACC-257 melanoma = system: UACC-257 melanoma
UACC-62 melanoma = system: UACC-62 melanoma
UO-31 renal = system: UO-31 renal
HL-60(TB) leukemia = system: HL-60(TB) leukemia
HOP-92 NSCLC = system: HOP-92 NSCLC
HT29 colon = system: HT29 colon
OVCAR-3 ovarian = system: OVCAR-3 ovarian

For `O=C(/C=C(\O)c1ccccc1)C(=O)NNc1ccc([N+](=O)[O-])cc1[N+](=O)[O-]`, the TGI (786-0 renal) was 25.9 µM, the TGI (A498 renal) was 70.4 µM and the TGI (A549 NSCLC) was 34.1 µM. The TGI (ACHN renal) was 66.5 µM, the TGI (BT-549 breast) was 48.2 µM and the TGI (CAKI-1 renal) was 43.1 µM. The TGI (CCRF-CEM leukemia) was 43.5 µM, the TGI (COLO 205 colon) was 32.3 µM and the TGI (DU-145 prostate) was 32.9 µM. The TGI (EKVX NSCLC) was 56.3 µM, the TGI (HCC-2998 colon) was 30 µM and the TGI (HCT-116 colon) was 27.4 µM. The TGI (HCT-15 colon) was 35.4 µM, the TGI (HOP-62 NSCLC) was 37.8 µM and the TGI (IGROV1 ovarian) was 38.2 µM. The TGI (K-562 leukemia) was 95.1 µM, the TGI (KM12 colon) was 33.7 µM and the TGI (LOX IMVI melanoma) was 64.3 µM. It also gave a TGI (M14 melanoma) of 31.3 µM, a TGI (MALME-3M melanoma) of 82.4 µM and a TGI (MCF7 breast) of over 100 µM. The TGI (MDA-MB-231 breast) was 67.6 µM, the TGI (MDA-MB-435) was over 100 µM and the TGI (MDA-N) was 78.1 µM. It also gave a TGI (MOLT-4 leukemia) of 38.3 µM, a TGI (NCI-H226 lung) of 50.4 µM and a TGI (NCI-H23 lung) of 47.2 µM. For the same molecule, the TGI (NCI-H460 lung) was 40.2 µM, the TGI (NCI-H522 lung) was 82.4 µM and the TGI (NCI/ADR-RES ovarian) was 36.6 µM. For the same molecule, the TGI (OVCAR-4 ovarian) was 95 µM, the TGI (OVCAR-5 ovarian) was 58.7 µM and the TGI (OVCAR-8 ovarian) was 53.6 µM. It also gave a TGI (PC-3 prostate) of 44.9 µM, a TGI (RPMI-8226 leukemia) of 82.4 µM and a TGI (RXF 393 renal) of 35 µM. For the same molecule, the TGI (SF-268 CNS) was 37.8 µM, the TGI (SF-295 CNS) was 29.8 µM and the TGI (SF-539 CNS) was 33.5 µM. For the same molecule, the TGI (SK-MEL-2 melanoma) was over 100 µM, the TGI (SK-MEL-28 melanoma) was 60.8 µM and the TGI (SK-MEL-5 melanoma) was 60.1 µM. It also gave a TGI (SK-OV-3 ovarian) of 41.6 µM, a TGI (SN12C renal) of 31.8 µM and a TGI (SNB-19 CNS) of 74.6 µM. It also gave a TGI (SNB-75 CNS) of 30.9 µM, a TGI (SR leukemia) of 43.6 µM and a TGI (SW-620 colon) of 34 µM. For the same molecule, the TGI (T-47D breast) was 48.5 µM, the TGI (TK-10 renal) was 49 µM and the TGI (U251 CNS) was 28.1 µM. It also gave a TGI (UACC-257 melanoma) of 99.8 µM, a TGI (UACC-62 melanoma) of 31.1 µM and a TGI (UO-31 renal) of 27.5 µM.
In the case of `COc1cc(/C=C/C(=O)c2ccc(NS(=O)(=O)c3cc([N+](=O)[O-])ccc3C)cc2)cc(OC)c1OC`, the TGI (786-0 renal) is reported as 7.14 µM, the TGI (A549 NSCLC) is reported as 18.6 µM and the TGI (ACHN renal) is reported as 15.9 µM. For the same molecule, the TGI (BT-549 breast) was 14.4 µM, the TGI (CAKI-1 renal) was 17.3 µM and the TGI (CCRF-CEM leukemia) was 7.48 µM. It also gave a TGI (COLO 205 colon) of 14.9 µM, a TGI (DU-145 prostate) of 10.2 µM and a TGI (EKVX NSCLC) of 17 µM. It also gave a TGI (HCT-116 colon) of 6.49 µM, a TGI (HCT-15 colon) of 13.4 µM and a TGI (HL-60(TB) leukemia) of 11.1 µM. For the same molecule, the TGI (HOP-62 NSCLC) was 11.4 µM, the TGI (HOP-92 NSCLC) was 11.5 µM and the TGI (HT29 colon) was 14.4 µM. It also gave a TGI (IGROV1 ovarian) of 17.1 µM, a TGI (K-562 leukemia) of 10.9 µM and a TGI (KM12 colon) of 8.02 µM. For the same molecule, the TGI (LOX IMVI melanoma) was 9.36 µM, the TGI (M14 melanoma) was 15.3 µM and the TGI (MCF7 breast) was 9.72 µM. The TGI (MDA-MB-231 breast) was 7.39 µM, the TGI (MDA-MB-435) was 16.3 µM and the TGI (MDA-N) was 13 µM. It also gave a TGI (MOLT-4 leukemia) of 6.58 µM, a TGI (NCI-H226 lung) of 8.74 µM and a TGI (NCI-H23 lung) of 11 µM. For the same molecule, the TGI (NCI/ADR-RES ovarian) was over 100 µM, the TGI (OVCAR-3 ovarian) was 11.5 µM and the TGI (OVCAR-4 ovarian) was 13.5 µM. It also gave a TGI (OVCAR-5 ovarian) of 11.8 µM, a TGI (OVCAR-8 ovarian) of 7.97 µM and a TGI (PC-3 prostate) of 19.5 µM. The TGI (RPMI-8226 leukemia) was 6.21 µM, the TGI (RXF 393 renal) was 11.1 µM and the TGI (SF-295 CNS) was 16.4 µM. The TGI (SF-539 CNS) was 6.3 µM, the TGI (SK-MEL-2 melanoma) was 8.47 µM and the TGI (SK-MEL-28 melanoma) was 25 µM. It also gave a TGI (SK-MEL-5 melanoma) of 15.4 µM, a TGI (SK-OV-3 ovarian) of 15.4 µM and a TGI (SN12C renal) of 4.52 µM. For the same molecule, the TGI (SNB-19 CNS) was 14.1 µM, the TGI (SNB-75 CNS) was 14.2 µM and the TGI (SR leukemia) was 5.74 µM. For the same molecule, the TGI (SW-620 colon) was 25.5 µM, the TGI (T-47D breast) was 38.6 µM and the TGI (TK-10 renal) was 13.9 µM. It also gave a TGI (U251 CNS) of 13.7 µM, a TGI (UACC-257 melanoma) of 21.9 µM and a TGI (UO-31 renal) of 30.4 µM.
